Six compounds from ChEMBL document CHEMBL5365520, “Unlocking DCAFs To Catalyze Degrader Development: An Arena for Innovative Approaches” (J Med Chem, 2023) can be followed below.

By Emax is commonly meant the maximal effect, on the per cent scale that the assay sets. In general, DC50 refers to the concentration at which degradation of the target reaches its halfway point. By Kd is commonly meant the constant that tells how readily two partners part at equilibrium. One may read the EC50 as the concentration giving half of the maximal effect.

Test [1] deals with T1, DDB1- and CUL4-associated factor 16/Bromodomain-containing protein 4 (Homo sapiens, UniProt O60885+Q9NXF7). The test can be described thus: PROTAC activity at DCAF16/BRD4 in human PC-3 cells assessed as maximal degradation relative to control. The format is cell-based.
T1 sequence (Q9NXF7 whole entry, looked up, other chains not shown): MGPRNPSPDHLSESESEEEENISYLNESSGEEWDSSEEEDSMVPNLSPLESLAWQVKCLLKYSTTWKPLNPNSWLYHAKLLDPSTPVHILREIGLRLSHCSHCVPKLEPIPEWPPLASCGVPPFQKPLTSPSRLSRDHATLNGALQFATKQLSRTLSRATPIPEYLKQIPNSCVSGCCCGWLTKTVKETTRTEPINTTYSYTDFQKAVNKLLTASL
Test [2] deals with T1, DDB1- and CUL4-associated factor 16/Bromodomain-containing protein 4. Put plainly: PROTAC activity at DCAF16/BRD4 in human PC-3 cells assessed as reduction in protein degradation. Type of test: cell-based.
Test [3] deals with DCAF11-BRD4 (Homo sapiens) (UniProt O60885+Q8TEB1). The test can be described thus: PROTAC activity at DCAF11/BRD4 in HEK293T cells assessed as reduction of protein degradation at 1 uM measured after 24 hrs relative to control. Type of test: cell-based. More on the design: scale not given: the % may be the effect or the level left.
Chain of DCAF11-BRD4 (Homo sapiens) (Q8TEB1 whole entry, looked up, other chains not shown): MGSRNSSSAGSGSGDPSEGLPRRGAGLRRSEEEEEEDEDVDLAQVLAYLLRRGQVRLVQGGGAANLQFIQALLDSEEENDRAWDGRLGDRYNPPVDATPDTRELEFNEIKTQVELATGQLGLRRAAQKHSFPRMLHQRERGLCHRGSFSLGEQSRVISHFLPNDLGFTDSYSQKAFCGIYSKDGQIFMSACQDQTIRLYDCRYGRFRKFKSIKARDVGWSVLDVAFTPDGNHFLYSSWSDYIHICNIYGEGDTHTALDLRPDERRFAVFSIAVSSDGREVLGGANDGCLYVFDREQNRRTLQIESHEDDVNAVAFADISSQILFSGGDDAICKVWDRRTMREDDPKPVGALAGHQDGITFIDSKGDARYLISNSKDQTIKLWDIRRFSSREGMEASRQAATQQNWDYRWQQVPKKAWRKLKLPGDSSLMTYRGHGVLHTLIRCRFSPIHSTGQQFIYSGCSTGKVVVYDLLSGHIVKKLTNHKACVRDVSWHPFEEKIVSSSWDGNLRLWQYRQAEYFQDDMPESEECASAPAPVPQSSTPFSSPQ
Test [4] concerns the target DNA damage-binding protein 1 (Homo sapiens, UniProt Q16531). The test can be described thus: Binding affinity to N-terminal His6-tagged human DDB1 expressed in baculovirus infected Hi-5 insect cells assessed as dissociation constant by SPR analysis. A general note: Surface plasmon resonance follows binding to a sensor surface in real time, without labels.
Test [5] can be described thus: Binding affinity to biotinylated human DDA1/DDB1 (398 to 701 residues)/N-terminal His-ZZ-3C-tagged DCAF15/RBM39 RRM2 domain expressed in baculovirus infected Sf21 cells immobilized on SA chip assessed as dissociation constant by SPR analysis.
The nature of test [6]: Binding affinity to biotinylated human DDA1/DDB1 (398 to 701 residues)/N-terminal His-ZZ-3C-tagged DCAF15 expressed in baculovirus infected Sf21 cells immobilized on SA chip assessed as dissociation constant by SPR analysis.
A further test concerns the target DCAF1-BRD9 (Homo sapiens, UniProt Q9H8M2+Q9Y4B6). Put plainly: PROTAC activity at DCAF1/BRD9 in HEK293T cells co expressing HiBit/FF/CAS9 assessed as reduction of protein degradation measured after 6 hrs by immunoblotting analysis. Type of test: cell-based. A general note: HiBiT is a short tag that completes a luciferase, so light tracks the accessible tagged protein.

For test [7], the target named is von Hippel-Lindau disease tumor suppressor/Bromodomain-containing protein 4 (Homo sapiens, UniProt O60885+P40337). Put plainly: PROTAC activity at VHL/BRD4 in human LNCaP cells assessed as reduction in protein degradation measured after 6 hrs by Western blot analysis. The format is cell-based. Background: A western blot detects proteins with antibodies after separation by electrophoresis.
Chain of von Hippel-Lindau disease tumor suppressor/Bromodomain-containing protein 4 (P40337 whole entry, looked up, other chains not shown): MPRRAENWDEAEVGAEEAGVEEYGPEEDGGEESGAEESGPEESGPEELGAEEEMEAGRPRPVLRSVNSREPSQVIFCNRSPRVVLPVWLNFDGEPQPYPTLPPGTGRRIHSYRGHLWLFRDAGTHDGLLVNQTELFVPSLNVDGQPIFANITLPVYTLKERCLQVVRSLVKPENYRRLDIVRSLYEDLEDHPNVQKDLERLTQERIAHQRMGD

Chain of DNA damage-binding protein 1 (Q16531 whole entry, the tested form may be a part): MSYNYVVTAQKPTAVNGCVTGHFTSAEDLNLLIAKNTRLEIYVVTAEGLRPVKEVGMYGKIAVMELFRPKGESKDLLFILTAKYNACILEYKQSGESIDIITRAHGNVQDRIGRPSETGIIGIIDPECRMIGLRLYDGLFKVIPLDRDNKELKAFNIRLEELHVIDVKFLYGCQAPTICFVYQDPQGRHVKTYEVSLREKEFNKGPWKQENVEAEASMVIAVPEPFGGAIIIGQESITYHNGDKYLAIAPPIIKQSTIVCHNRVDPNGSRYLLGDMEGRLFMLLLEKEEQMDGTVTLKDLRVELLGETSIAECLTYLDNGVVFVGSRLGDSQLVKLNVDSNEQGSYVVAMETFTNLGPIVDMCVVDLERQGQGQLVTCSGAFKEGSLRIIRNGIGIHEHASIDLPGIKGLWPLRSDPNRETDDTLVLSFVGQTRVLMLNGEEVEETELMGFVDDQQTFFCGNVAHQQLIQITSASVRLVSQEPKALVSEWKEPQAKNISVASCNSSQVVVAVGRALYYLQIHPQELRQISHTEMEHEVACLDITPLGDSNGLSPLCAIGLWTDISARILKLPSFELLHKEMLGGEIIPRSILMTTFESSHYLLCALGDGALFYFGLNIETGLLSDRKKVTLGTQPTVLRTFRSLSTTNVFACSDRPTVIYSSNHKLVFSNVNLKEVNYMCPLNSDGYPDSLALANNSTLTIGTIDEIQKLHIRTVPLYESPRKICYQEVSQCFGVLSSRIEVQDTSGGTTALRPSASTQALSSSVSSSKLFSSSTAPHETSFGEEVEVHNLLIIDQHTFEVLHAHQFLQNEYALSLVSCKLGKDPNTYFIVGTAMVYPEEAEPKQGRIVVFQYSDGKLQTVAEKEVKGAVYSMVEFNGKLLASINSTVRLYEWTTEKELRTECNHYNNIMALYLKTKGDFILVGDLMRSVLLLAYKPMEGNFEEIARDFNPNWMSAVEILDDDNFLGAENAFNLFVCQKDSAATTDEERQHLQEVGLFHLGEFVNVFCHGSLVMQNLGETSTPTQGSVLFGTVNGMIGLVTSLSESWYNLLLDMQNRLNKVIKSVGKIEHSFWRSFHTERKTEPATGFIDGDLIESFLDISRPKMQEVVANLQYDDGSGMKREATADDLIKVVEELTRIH
Chain of DCAF1-BRD9 (Q9H8M2 whole entry): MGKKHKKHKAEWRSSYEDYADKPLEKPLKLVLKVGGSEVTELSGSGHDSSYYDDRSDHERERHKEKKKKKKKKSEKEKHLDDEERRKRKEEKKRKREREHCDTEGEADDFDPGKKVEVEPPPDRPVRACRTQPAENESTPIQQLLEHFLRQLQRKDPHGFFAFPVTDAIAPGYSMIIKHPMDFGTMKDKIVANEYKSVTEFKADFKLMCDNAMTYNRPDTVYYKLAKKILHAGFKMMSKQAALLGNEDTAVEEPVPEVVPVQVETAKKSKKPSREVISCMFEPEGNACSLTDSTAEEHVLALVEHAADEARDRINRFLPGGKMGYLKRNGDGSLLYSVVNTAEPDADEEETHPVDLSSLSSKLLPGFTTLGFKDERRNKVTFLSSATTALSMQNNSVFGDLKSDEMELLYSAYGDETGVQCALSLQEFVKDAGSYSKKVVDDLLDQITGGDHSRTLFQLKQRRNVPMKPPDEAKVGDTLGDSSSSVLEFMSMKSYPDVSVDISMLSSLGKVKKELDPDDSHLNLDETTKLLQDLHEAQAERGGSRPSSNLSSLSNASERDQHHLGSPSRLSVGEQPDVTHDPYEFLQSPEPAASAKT
Chain of DCAF1-BRD9 (Q9Y4B6 whole entry): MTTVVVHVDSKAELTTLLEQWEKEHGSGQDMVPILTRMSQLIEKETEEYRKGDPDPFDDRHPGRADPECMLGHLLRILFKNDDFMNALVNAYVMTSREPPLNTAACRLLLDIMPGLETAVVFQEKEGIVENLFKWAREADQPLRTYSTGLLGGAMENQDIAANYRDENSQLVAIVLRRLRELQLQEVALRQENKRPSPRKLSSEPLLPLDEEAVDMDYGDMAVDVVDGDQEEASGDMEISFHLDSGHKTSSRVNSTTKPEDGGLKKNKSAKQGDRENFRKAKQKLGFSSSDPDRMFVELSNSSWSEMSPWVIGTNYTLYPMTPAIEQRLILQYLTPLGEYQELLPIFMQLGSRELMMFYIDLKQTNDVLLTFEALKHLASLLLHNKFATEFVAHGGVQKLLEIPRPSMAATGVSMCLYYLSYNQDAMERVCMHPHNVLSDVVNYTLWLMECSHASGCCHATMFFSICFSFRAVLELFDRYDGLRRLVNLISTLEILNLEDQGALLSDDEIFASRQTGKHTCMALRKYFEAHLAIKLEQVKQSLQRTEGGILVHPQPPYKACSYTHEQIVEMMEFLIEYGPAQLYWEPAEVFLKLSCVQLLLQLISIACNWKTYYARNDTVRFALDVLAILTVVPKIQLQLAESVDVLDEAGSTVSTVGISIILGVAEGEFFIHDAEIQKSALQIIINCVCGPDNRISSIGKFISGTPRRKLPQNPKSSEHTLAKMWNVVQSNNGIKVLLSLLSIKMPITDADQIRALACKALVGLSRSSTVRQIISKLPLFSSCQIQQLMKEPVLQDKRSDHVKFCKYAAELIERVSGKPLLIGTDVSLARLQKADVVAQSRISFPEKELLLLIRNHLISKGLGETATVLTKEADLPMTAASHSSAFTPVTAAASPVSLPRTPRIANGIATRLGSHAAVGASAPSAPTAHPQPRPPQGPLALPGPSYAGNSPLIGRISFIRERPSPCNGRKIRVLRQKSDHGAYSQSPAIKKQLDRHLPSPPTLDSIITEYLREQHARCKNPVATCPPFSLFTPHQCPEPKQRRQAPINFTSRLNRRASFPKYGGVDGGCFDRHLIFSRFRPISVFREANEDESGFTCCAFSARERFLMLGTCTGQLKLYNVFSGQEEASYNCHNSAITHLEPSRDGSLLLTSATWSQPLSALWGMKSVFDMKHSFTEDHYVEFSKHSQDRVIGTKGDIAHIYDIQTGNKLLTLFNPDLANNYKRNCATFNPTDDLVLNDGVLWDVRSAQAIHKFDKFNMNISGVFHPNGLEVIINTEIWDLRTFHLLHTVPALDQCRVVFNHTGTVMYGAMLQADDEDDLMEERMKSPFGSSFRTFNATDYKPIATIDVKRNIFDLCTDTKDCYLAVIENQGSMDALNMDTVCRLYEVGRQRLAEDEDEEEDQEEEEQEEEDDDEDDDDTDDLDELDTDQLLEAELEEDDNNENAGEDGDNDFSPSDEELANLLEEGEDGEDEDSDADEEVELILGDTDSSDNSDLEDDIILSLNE

Consider `Cc1sc2c(c1C)C(c1ccc(C#CCN)cc1)=N[C@@H](CC(=O)OC(C)(C)C)c1nnc(C)n1-2`, for which the maximal effect (Emax) in test [1] was 84%. Besides, in test [2], the 50% degradation concentration (DC50) came to 1.4 nM.
On to `Cc1sc2c(c1C)C(c1ccc(-c3cccc(NC(=O)c4cn5ccccc5n4)c3)cc1)=N[C@@H](CC(N)=O)c1nnc(C)n1-2`, for which the Activity in test [3] was 95%.
As to `Cc1cc(NCCOCCOCCOCCOCCOCCN)ccc1C(=O)Nc1nc(C)c(C)s1`, in test [4], the Kd was under 20000 nM.
Consider `NS(=O)(=O)c1ccc(S(=O)(=O)Nc2cccc3c(Cl)c[nH]c23)cc1` [INDISULAM], for which the values for the equilibrium dissociation constant (Kd) in test [5] and in test [6] were 135 nM and over 50000 nM, respectively.
In the case of `COc1cc(-c2cncc3c(=O)n(C)ccc23)c(OC)cc1CN1CCC(OCCCCCC(=O)N2CCN(c3ccc4c(NCCN)nc(C5(c6ccc(Cl)cc6)CCCCC5)nc4c3)CC2)CC1`, the EC50 at DCAF1-BRD9 is about 500 nM.
As to `Cc1sc2c(c1C)C(c1ccc(-c3ccc(C(=O)NCc4ccc(S(=O)(=O)Nc5ccc(C)c6c(C#N)c[nH]c56)cc4)cc3)cc1)=N[C@@H](CC(=O)OC(C)(C)C)c1nnc(C)n1-2`, in test [7], the EC50 was 0.15 nM.
